From PubChem BioAssay AID1963977 (Molecular Pharmacology Branch, DTP, NCI, 2024)

Tested on: 624824-186-R-J3-PDC multicell spheroids, viability
Test: Anticancer human tumor 624824-186-R-J3-PDC patient-derived colon adenocarcinoma cell line growth inhibition [PI3K]
Settings: for viability, T/C: stronger effect = lower value
Summary of the method: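 Targeted small molecules plus PI3K inhibitors, half-log dose series from Cmax (default top 10 microM), were applied to heterotypic spheroids of cancer cells with HUVEC and MSCs. Viability indicated growth inhibition.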
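Further: spheroids exposed to agents for seven days before luminescence read.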
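Wherever viability, T/C is given: luminescent signal used as a stand-in for spheroid viability; percent viability relative to DMSO vehicle control wells taken as 100%.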

CCCS(=O)(=O)Nc1ccc(F)c(C(=O)c2c[nH]c3ncc(-c4ccc(Cl)cc4)cc23)c1F
viability, T/C (compound 0.0316 µM): 99.1% [middle of 4 runs]
viability, T/C (compound 0.1 µM): 97.5% [middle of 4 runs]
viability, T/C (compound 0.316 µM): 102% [middle of 4 runs]
viability, T/C (compound 1 µM): 95.5% [middle of 4 runs]
viability, T/C (compound 3.16 µM): 86% [middle of 4 runs]
viability, T/C (compound 10 µM): 11.9% [middle of 4 runs]
IC50 (curve of compound): 5.47 µM [middle of 4 runs]

CCCS(=O)(=O)Nc1ccc(F)c(C(=O)c2c[nH]c3ncc(-c4ccc(Cl)cc4)cc23)c1F + CC(Nc1ccc2c(c1)OCCn1cc(N3C(=O)OCC3C(F)F)nc1-2)C(N)=O
IC50 (curve of first compound, second compound 0.00316 µM): 5000 nM
IC50 (curve of first compound, second compound 0.01 µM): 4150 nM
IC50 (curve of first compound, second compound 0.0316 µM): 3380 nM
IC50 (curve of first compound, second compound 0.1 µM): 1390 nM
IC50 (curve of first compound, second compound 0.316 µM): 637 nM
IC50 (curve of first compound, second compound 1 µM): 353 nM
viability, T/C (second compound 0.00316 µM, first compound 0.0316 µM): 93.5%
viability, T/C (second compound 0.00316 µM, first compound 0.1 µM): 89.6%
viability, T/C (second compound 0.00316 µM, first compound 0.316 µM): 98.9%
viability, T/C (second compound 0.00316 µM, first compound 1 µM): 88%
viability, T/C (second compound 0.00316 µM, first compound 3.16 µM): 71.9%
viability, T/C (second compound 0.00316 µM, first compound 10 µM): 17.3%
viability, T/C (second compound 0.01 µM, first compound 0.0316 µM): 100%
viability, T/C (second compound 0.01 µM, first compound 0.1 µM): 94.1%
viability, T/C (second compound 0.01 µM, first compound 0.316 µM): 86.9%
viability, T/C (second compound 0.01 µM, first compound 1 µM): 74.4%
viability, T/C (second compound 0.01 µM, first compound 3.16 µM): 67.9%
viability, T/C (second compound 0.01 µM, first compound 10 µM): 12.9%
viability, T/C (second compound 0.0316 µM, first compound 0.0316 µM): 103%
viability, T/C (second compound 0.0316 µM, first compound 0.1 µM): 92.8%
viability, T/C (second compound 0.0316 µM, first compound 0.316 µM): 83.4%
viability, T/C (second compound 0.0316 µM, first compound 1 µM): 73.7%
viability, T/C (second compound 0.0316 µM, first compound 3.16 µM): 55.6%
viability, T/C (second compound 0.0316 µM, first compound 10 µM): 13.9%
viability, T/C (second compound 0.1 µM, first compound 0.0316 µM): 99%
viability, T/C (second compound 0.1 µM, first compound 0.1 µM): 86.1%
viability, T/C (second compound 0.1 µM, first compound 0.316 µM): 76.8%
viability, T/C (second compound 0.1 µM, first compound 1 µM): 48.6%
viability, T/C (second compound 0.1 µM, first compound 3.16 µM): 40.9%
viability, T/C (second compound 0.1 µM, first compound 10 µM): 14.1%
viability, T/C (second compound 0.316 µM, first compound 0.0316 µM): 95.2%
viability, T/C (second compound 0.316 µM, first compound 0.1 µM): 87.7%
viability, T/C (second compound 0.316 µM, first compound 0.316 µM): 56.7%
viability, T/C (second compound 0.316 µM, first compound 1 µM): 41.8%
viability, T/C (second compound 0.316 µM, first compound 3.16 µM): 30.6%
viability, T/C (second compound 0.316 µM, first compound 10 µM): 13.3%
viability, T/C (second compound 1 µM, first compound 0.0316 µM): 77.7%
viability, T/C (second compound 1 µM, first compound 0.1 µM): 69.5%
viability, T/C (second compound 1 µM, first compound 0.316 µM): 44.4%
viability, T/C (second compound 1 µM, first compound 1 µM): 38.1%
viability, T/C (second compound 1 µM, first compound 3.16 µM): 32.3%
viability, T/C (second compound 1 µM, first compound 10 µM): 11.6%
